Reference: ChEMBL document CHEMBL1201862, “PubChem BioAssay data set” (2004)
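Where inhibition never reached the appropriate level, the endpoint shown equals the highest concentration tested. Otherwise, values were interpolated linearly from a five-concentration, 48-hour dose response in 96-well plates. GI50 is the concentration that inhibits growth by half.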 The source made the active and inactive calls. Rule as the data show it: active = GI50 up to about 1.1 µM and inactive = higher.

How the values were obtained:
Assay in all cases: DTP human tumour cell line panel, 48 h
[1] = system: UACC-257
[2] = system: SK-MEL-28
[3] = system: TK-10
[4] = system: OVCAR-4
[5] = system: SNB-75
[6] = system: KM12
[7] = system: OVCAR-8
[8] = system: RXF 393
[9] = system: M14
[10] = system: SNB-19
[11] = system: SW-620
[12] = system: SF-295
[13] = system: A498

Measured: GI50

Cn1cc2ccccc2c1-c1nc(N)nc(F)n1
inactive: [1] > 100 µM | [2] > 100 µM | [3] > 100 µM | [4] > 100 µM | [5] 47.3 µM | [6] > 100 µM | [7] > 100 µM | [8] 82.8 µM | [9] > 100 µM | [10] > 100 µM | [11] 78.3 µM | [12] 50.9 µM | [13] 15.6 µM

CCOCN/C(N)=N\C#N
inactive: [1] > 100 µM | [2] > 100 µM | [3] > 100 µM | [4] > 10 µM | [5] > 100 µM | [6] > 100 µM | [7] > 100 µM | [8] 61.8 µM | [9] > 100 µM | [10] > 100 µM | [11] 18.3 µM | [12] > 100 µM | [13] > 100 µM

O=C(CCc1nnc2s/c(=C\c3ccc4c(c3)OCO4)c(=O)n12)Nc1cc(Cl)ccc1Cl
inactive: [1] > 100 µM | [2] > 100 µM | [3] > 100 µM | [4] > 100 µM | [5] > 100 µM | [6] > 100 µM | [7] > 100 µM | [8] > 100 µM | [9] > 100 µM | [10] > 100 µM | [11] > 43.6 µM | [12] > 100 µM | [13] > 100 µM

COc1c(CC(=O)c2ccccc2)c2ccccc2n1C(C)=O
inactive: [1] > 100 µM | [2] > 100 µM | [4] > 100 µM | [5] > 100 µM | [6] > 100 µM | [7] 91 µM | [8] 34.5 µM | [9] > 100 µM | [10] > 100 µM | [11] > 100 µM | [12] 72.9 µM | [13] > 100 µM

CN1N=CSC12C(=O)N(c1ccc(Cl)cc1)C(=O)N2c1ccc(Cl)cc1 (centres undefined)
inactive: [1] 3.15 µM | [2] 4.4 µM | [3] 3.84 µM | [4] 5.24 µM | [5] 3.99 µM | [6] 3.58 µM | [7] 3.51 µM | [8] 5.33 µM | [9] 5.42 µM | [10] 3.82 µM | [11] 4.52 µM | [12] 3.28 µM | [13] 3.1 µM

CS(=O)(=O)OCCN(CCOS(C)(=O)=O)c1ccc(/C=N/N=c2/nc[nH]c3nc[nH]c23)cc1
inactive: [1] 19.8 µM | [2] 19.3 µM | [3] 26.9 µM | [4] 22.7 µM | [5] 14.6 µM | [6] 15.6 µM | [7] 20.7 µM | [8] 15.7 µM | [9] 17.6 µM | [10] 27.6 µM | [11] 16 µM | [12] 14.9 µM | [13] 25.7 µM

O=C1N(Cl)C(=O)C(c2ccc(Cl)cc2)(c2ccc(Cl)cc2)N1Cl
inactive: [2] > 100 µM | [3] > 100 µM | [4] > 100 µM | [5] > 100 µM | [6] 48.8 µM | [7] 71.4 µM | [8] 22.6 µM | [9] 34.4 µM | [10] > 100 µM | [11] > 100 µM | [12] 55.3 µM | [13] > 100 µM

C#CC1(O)CCC2[C@@H]3CCc4cc(Oc5nc(F)nc(-c6c7ccccc7cn6C)n5)ccc4C3CC[C@@]21C (some centres undefined)
inactive: [1] > 100 µM | [2] > 100 µM | [3] > 100 µM | [4] > 100 µM | [5] > 91.2 µM | [6] > 100 µM | [7] > 100 µM | [8] > 93.1 µM | [9] > 100 µM | [10] > 100 µM | [11] 55.5 µM | [12] > 100 µM | [13] > 100 µM

CCCCCCCCCCCCCP(=O)(O)NCC(N)=O
inactive: [1] 59.4 µM | [2] 39.1 µM | [3] 58.3 µM | [4] 28.7 µM | [5] 17.4 µM | [6] 85.1 µM | [7] 71.3 µM | [8] > 100 µM | [9] 29.2 µM | [10] 45.6 µM | [11] 99.8 µM | [12] 52 µM | [13] > 100 µM

NC1=NS(=O)(=O)Nc2nc(-c3cccs3)[nH]c21
inactive: [2] > 100 µM | [3] > 100 µM | [4] > 100 µM | [5] > 100 µM | [6] > 100 µM | [7] > 100 µM | [8] > 100 µM | [9] > 100 µM | [10] > 100 µM | [11] > 100 µM | [12] > 100 µM | [13] > 100 µM

CNC(=O)C(C)Oc1ccc(OCC2CCCCC2)cc1 (centres undefined)
inactive: [1] 61.1 µM | [2] > 100 µM | [3] > 100 µM | [4] > 100 µM | [5] 96.2 µM | [6] > 100 µM | [7] > 100 µM | [8] > 100 µM | [9] > 100 µM | [10] > 100 µM | [12] 60.7 µM | [13] > 100 µM
